The NIST ThermoML archive (doi:10.1021/acs.jced.8b00403)

How the values were obtained:
[1] = refractive index (Na D-line) (dimensionless); details: 101.33 kPa, Liquid, Standard Abbe refractometry
[2] = 101.33 kPa, Liquid; for viscosity: Concentric cylinders viscometry; for mass density: Vibrating tube method
[3] = refractive index (Na D-line) (dimensionless); wn = mass fraction of the nth substance listed; details: 101.33 kPa, Liquid, Standard Abbe refractometry, w2 = 0
[4] = wn = mass fraction of the nth substance listed; details: 101.33 kPa, Liquid, w2 = 0; for viscosity: Concentric cylinders viscometry; for mass density: Vibrating tube method

CC(O)CO (stereo unspecified) [1,2-propanediol]
Details	mass density, [2] [kg/m3]	refractive index, [1]	viscosity, [2] [mPa·s]
253.15 K	1065.8	–	1772.4
258.15 K	1062.2	–	1038.3
263.15 K	1058.6	–	631.08
268.15 K	1054.9	–	396.99
273.15 K	1051.3	–	258
278.15 K	–	1.438	–
283.15 K	1042.9	1.4364	116.68
288.15 K	–	1.4348	–
293.15 K	1035.5	1.4332	59.75
298.15 K	–	1.4315	–
303.15 K	1028.1	1.4299	33.26
308.15 K	–	1.4281	–
313.15 K	1020.6	1.4264	19.92
318.15 K	–	1.4247	–
323.15 K	1013	–	12.68
333.15 K	1005.3	–	8.498
343.15 K	997.7	–	5.95
353.15 K	989.5	–	4.332

OCCCO [propan-1,3-diol]
Details	mass density, [2] [kg/m3]	refractive index, [1]	viscosity, [2] [mPa·s]
253.15 K	1078.2	–	574.39
258.15 K	1075.4	–	409.88
263.15 K	1072.3	–	289.5
268.15 K	1069	–	207.88
273.15 K	1065.9	–	152.75
278.15 K	–	1.4436	–
283.15 K	1059.8	1.4423	86.48
288.15 K	–	1.4409	–
293.15 K	1053.6	1.4395	52.01
298.15 K	–	1.4381	–
303.15 K	1047.4	1.4368	32.92
308.15 K	–	1.4354	–
313.15 K	1041.1	1.434	21.79
318.15 K	–	1.4325	–
323.15 K	1034.8	–	15
333.15 K	1028.4	–	10.72
343.15 K	1021.9	–	7.855
353.15 K	1015.3	–	5.916

O [water]
Details	mass density, [2] [kg/m3]	refractive index, [1]	viscosity, [2] [mPa·s]
273.15 K	1000.8	–	1.825
278.15 K	–	1.3341	–
283.15 K	1000.6	1.3338	1.345
288.15 K	–	1.3335	–
293.15 K	999.3	1.3331	1.041
298.15 K	–	1.3326	–
303.15 K	996.8	1.332	0.8467
308.15 K	–	1.3313	–
313.15 K	993.2	1.3306	0.6997
318.15 K	–	1.3298	–
323.15 K	989	–	0.5967
333.15 K	984.4	–	0.5091
343.15 K	978.6	–	0.4355
353.15 K	972.7	–	0.3911

O [water] + CC(O)CO
Details	mass density, [4] [kg/m3]	refractive index, [3]	viscosity, [4] [mPa·s]
273.15 K	1000.8	–	1.825
278.15 K	–	1.3341	–
283.15 K	1000.6	1.3338	1.345
288.15 K	–	1.3335	–
293.15 K	999.3	1.3331	1.041
298.15 K	–	1.3326	–
303.15 K	996.8	1.332	0.8467
308.15 K	–	1.3313	–
313.15 K	993.2	1.3306	0.6997
318.15 K	–	1.3298	–
323.15 K	989	–	0.5967
333.15 K	984.4	–	0.5091
343.15 K	978.6	–	0.4355
353.15 K	972.7	–	0.3911

O [water] + OCCCO
Details	mass density, [4] [kg/m3]	refractive index, [3]	viscosity, [4] [mPa·s]
273.15 K	1000.8	–	1.825
278.15 K	–	1.3341	–
283.15 K	1000.6	1.3338	1.345
288.15 K	–	1.3335	–
293.15 K	999.3	1.3331	1.041
298.15 K	–	1.3326	–
303.15 K	996.8	1.332	0.8467
308.15 K	–	1.3313	–
313.15 K	993.2	1.3306	0.6997
318.15 K	–	1.3298	–
323.15 K	989	–	0.5967
333.15 K	984.4	–	0.5091
343.15 K	978.6	–	0.4355
353.15 K	972.7	–	0.3911
